Test systems include SW-620 colon; HCT-15 colon; BT-549 breast; KM12 colon; K-562 leukemia; HCC-2998 colon; CCRF-CEM leukemia; MCF7 breast.
Holding throughout (assay): growth of human tumour cells (NCI), 48 h

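All cell lines were grown in 96-well plates and treated with compound for 48 hours. The concentration for 50% growth inhibition is given as GI50. The concentration for full growth arrest is given as TGI.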

`CCOc1ccc(NC(=O)c2cc3ccccc3cc2O)cc1`: the GI50 in the experiment with SW-620 colon was above 100 µM; with HCT-15 colon it was above 100 µM; in the experiment on BT-549 breast, 42 µM; in the experiment on KM12 colon, above 100 µM; in the experiment with K-562 leukemia, 52.5 µM; in the experiment with HCC-2998 colon, above 100 µM. The GI50 with CCRF-CEM leukemia was 17.9 µM; in the experiment on MCF7 breast it was above 100 µM. Also, the TGI in the experiment on SW-620 colon, in the experiment with HCT-15 colon, in the experiment on BT-549 breast, in the experiment on KM12 colon, with K-562 leukemia and with HCC-2998 colon was above 100 µM each time. Also, the TGI was 41.7 µM in the experiment with CCRF-CEM leukemia and above 100 µM with MCF7 breast.
Take `CNC12C3C4C1C1C2C3C41C(=O)N[C@H](C(=O)N(C)[C@H](C[C@@H](OC(C)=O)c1nc(C(=O)N[C@@H](Cc2ccccc2)C[C@H](C)C(=O)OC)cs1)C(C)C)C1CC1` (some centres undefined): the GI50 in the experiment with SW-620 colon was 0.21 µM; in the experiment with HCT-15 colon, 0.831 µM; in the experiment with BT-549 breast it was 0.123 µM; in the experiment on KM12 colon, 0.276 µM; in the experiment with K-562 leukemia, 0.0667 µM; with HCC-2998 colon, 0.319 µM. The GI50 with CCRF-CEM leukemia is 0.318 µM; in the experiment on MCF7 breast it was 0.0405 µM. Moreover, the TGI with SW-620 colon is above 15 µM; with HCT-15 colon it was above 15 µM; in the experiment on BT-549 breast, 0.745 µM; in the experiment with KM12 colon, 6.69 µM; in the experiment on K-562 leukemia it was above 15 µM; with HCC-2998 colon, 2.67 µM. In addition, the TGI is 3.02 µM in the experiment on CCRF-CEM leukemia and above 15 µM in the experiment with MCF7 breast.
Regarding `C[C@@H]1CC[C@@H]2[C@@H]1[C@H](OC(=O)c1ccc3ccccc3c1)[C@]1(C3CCCCC3)C[C@@H](OC(=O)CO)[C@@]2(C)O1`, the GI50 with SW-620 colon was 13 µM; in the experiment with HCT-15 colon, 7.93 µM; in the experiment with BT-549 breast, 0.0714 µM; in the experiment with KM12 colon it was 11.1 µM; in the experiment with K-562 leukemia, 11.4 µM; with HCC-2998 colon, 11.8 µM. Further, the figures for the GI50 with CCRF-CEM leukemia and in the experiment on MCF7 breast were 5.36 µM and 3.44 µM, respectively. In addition, the TGI with SW-620 colon worked out at 30.4 µM; with HCT-15 colon, 22.4 µM; with BT-549 breast it was 1.56 µM; in the experiment on KM12 colon, 26.5 µM; in the experiment on K-562 leukemia it was 40.9 µM; in the experiment with HCC-2998 colon, 28.1 µM. Besides, the TGI in the experiment with CCRF-CEM leukemia amounted to 23.6 µM; in the experiment on MCF7 breast it was 16.5 µM.
As to `CN(N=O)C(=O)Nc1ccc(C(=O)O)cc1`, the TGI with SW-620 colon, in the experiment with HCT-15 colon, in the experiment with BT-549 breast, in the experiment on KM12 colon, in the experiment with K-562 leukemia and with HCC-2998 colon was above 100 µM in each case. Further, the TGI in the experiment on CCRF-CEM leukemia and with MCF7 breast was above 100 µM throughout.
On to `CSC(=NC#N)S/C=C/C(=O)c1cccc2ccccc12`, for which the GI50 in the experiment on SW-620 colon is 36.9 µM; in the experiment on HCT-15 colon it was 27.4 µM; in the experiment with BT-549 breast it was 20.1 µM; with KM12 colon it was 29.1 µM; in the experiment with K-562 leukemia, 29.2 µM; in the experiment with HCC-2998 colon, 63 µM. Also, the GI50 in the experiment with CCRF-CEM leukemia is 27.1 µM; with MCF7 breast, 30.9 µM. The TGI in the experiment on SW-620 colon was above 100 µM; with HCT-15 colon, above 100 µM; in the experiment on BT-549 breast, 56 µM; in the experiment with KM12 colon it was above 100 µM; with K-562 leukemia it was above 100 µM; with HCC-2998 colon it was above 100 µM. Besides, the TGI in the experiment with CCRF-CEM leukemia and in the experiment on MCF7 breast was above 100 µM throughout.
On to `C=C1[C@@H](O)C[C@H]2C(C)(C)C[C@H](Cl)C[C@]2(C)[C@H]1C[C@H](O)[C@H]1CC(=O)NC1=O`, for which the GI50 in the experiment with SW-620 colon was 0.0114 µM; in the experiment on HCT-15 colon, 0.0255 µM; with BT-549 breast, 0.0265 µM; in the experiment with KM12 colon it was below 0.012 µM; with K-562 leukemia, 0.0121 µM; with HCC-2998 colon, 0.0173 µM. Also, the GI50 in the experiment on CCRF-CEM leukemia and in the experiment on MCF7 breast was below 0.01 µM throughout. Also, the TGI in the experiment on SW-620 colon is 4.94 µM; in the experiment with HCT-15 colon, 0.596 µM; with BT-549 breast, 0.155 µM; in the experiment with KM12 colon it was 0.441 µM; in the experiment with HCC-2998 colon, 0.117 µM; in the experiment on MCF7 breast, 0.106 µM.
Regarding `OCc1ncc(-c2ccccc2)s1`, the GI50 in the experiment on SW-620 colon, in the experiment with HCT-15 colon, in the experiment with BT-549 breast, in the experiment with KM12 colon, in the experiment on K-562 leukemia and in the experiment with HCC-2998 colon was above 100 µM throughout. Further, the GI50 with CCRF-CEM leukemia and in the experiment with MCF7 breast was above 100 µM in each case. In addition, the TGI in the experiment with SW-620 colon, with HCT-15 colon, with BT-549 breast, with KM12 colon, in the experiment on K-562 leukemia and in the experiment on HCC-2998 colon was above 100 µM throughout. The TGI in the experiment with CCRF-CEM leukemia and with MCF7 breast was above 100 µM in each case.
On to `CCOC(=O)Nc1ccc(C(=O)/C=C/c2ccccc2)cc1`, for which the GI50 in the experiment with SW-620 colon was 19.2 µM; in the experiment with HCT-15 colon, 27.2 µM; with BT-549 breast it was 26.5 µM; in the experiment with KM12 colon it was 4.8 µM; with K-562 leukemia, 8.28 µM; in the experiment on HCC-2998 colon, 17.1 µM. In addition, the GI50 in the experiment with CCRF-CEM leukemia was 36.9 µM; in the experiment with MCF7 breast, 3.14 µM. The TGI in the experiment with SW-620 colon was above 100 µM; with HCT-15 colon, above 100 µM; in the experiment with BT-549 breast it was 67.8 µM; in the experiment with KM12 colon, 17.6 µM; in the experiment on K-562 leukemia, above 100 µM; in the experiment on HCC-2998 colon it was 31.6 µM. The TGI was above 100 µM in the experiment with CCRF-CEM leukemia and 33.9 µM in the experiment with MCF7 breast.
On to `C[n+]1cc2cc3c(cc2c2ccccc21)OCO3`, for which the GI50 in the experiment on SW-620 colon is 4.52 µM; in the experiment on HCT-15 colon it was 70.2 µM; in the experiment with BT-549 breast it was 2.95 µM; in the experiment on KM12 colon, 1.22 µM; in the experiment on K-562 leukemia it was 7.24 µM; with HCC-2998 colon, 3.81 µM. For the same molecule, the GI50 was 8.71 µM in the experiment on CCRF-CEM leukemia and 2.61 µM with MCF7 breast. Also, the TGI in the experiment on SW-620 colon was above 100 µM; in the experiment with HCT-15 colon it was above 100 µM; in the experiment on BT-549 breast, 16.3 µM; in the experiment with KM12 colon, 10.1 µM; in the experiment on K-562 leukemia, above 100 µM; in the experiment on HCC-2998 colon, 19.2 µM. For the same molecule, the TGI in the experiment with CCRF-CEM leukemia was above 100 µM; in the experiment on MCF7 breast it was 17.3 µM.

The record behind these values is PubChem BioAssay (NCI).
